In ChEMBL document CHEMBL3085716, “Hytramycins V and I, anti-Mycobacterium tuberculosis hexapeptides from a Streptomyces hygroscopicus strain” (J Nat Prod, 2013):
Converted amounts (≈) assume the structure as drawn.

Columns and labels:
[1] = test system: Mycobacterium tuberculosis; assay: Ratio of MIC for Mycobacterium tuberculosis H37Rv under normoxic condition in presence of 10% fetal bovine serum to MIC for Mycobacterium tuberculosis H37Rv under normoxic condition in absence of 10% fetal bovine serum by MABA assay; assay type: functional
[2] = test system: Mycobacterium tuberculosis; assay: Ratio of MIC for Mycobacterium tuberculosis H37Rv under normoxic condition in presence of 4% bovine serum albumin to MIC for Mycobacterium tuberculosis H37Rv under normoxic condition in absence of 4% bovine serum albumin by MABA assay; assay type: functional
[3] = test system: Mycobacterium tuberculosis; assay: Antimycobacterial activity against Mycobacterium tuberculosis H37Rv under normoxic condition after 7 days by MABA assay in presence of 10% fetal bovine serum; assay type: functional; conditions: 168 h
[4] = test system: Mycobacterium tuberculosis; assay: Antimycobacterial activity against Mycobacterium tuberculosis H37Rv under normoxic condition after 7 days by MABA assay in presence of 4% bovine serum albumin; assay type: functional; conditions: 168 h
[5] = test system: Streptococcus pneumoniae; assay: Antibacterial activity against Streptococcus pneumoniae ATCC 49619 after 20 hrs; assay type: functional; conditions: ATCC 49619, 20 h
[6] = test system: Pseudomonas aeruginosa; assay: Antibacterial activity against Pseudomonas aeruginosa ATCC 27853 at 10 ug/ml after 16 hrs; assay type: functional; conditions: ATCC 27853, 16 h
[7] = test system: Pseudomonas aeruginosa; assay: Antibacterial activity against Pseudomonas aeruginosa ATCC 27853 after 16 hrs; assay type: functional; conditions: ATCC 27853, 16 h
[8] = test system: Enterococcus faecalis; assay: Antibacterial activity against Enterococcus faecalis ATCC 29212 after 16 hrs; assay type: functional; conditions: ATCC 29212, 16 h
[9] = test system: Candida albicans; assay: Antifungal activity against Candida albicans ATCC 10231 at 10 ug/ml after 48 hrs; assay type: functional; conditions: ATCC 10231, 48 h
[10] = test system: Candida albicans; assay: Antifungal activity against Candida albicans ATCC 10231 after 48 hrs; assay type: functional; conditions: ATCC 10231, 48 h
[11] = test system: Staphylococcus aureus; assay: Antibacterial activity against Staphylococcus aureus ATCC 29213 at 10 ug/ml after 16 hrs; assay type: functional; conditions: ATCC 29213, 16 h
[12] = test system: Staphylococcus aureus; assay: Antibacterial activity against Staphylococcus aureus ATCC 29213 after 16 hrs; assay type: functional; conditions: ATCC 29213, 16 h
[13] = test system: Escherichia coli; assay: Antibacterial activity against Escherichia coli ATCC 25922 at 10 ug/ml after 16 hrs; assay type: functional; conditions: ATCC 25922, 16 h
[14] = test system: Escherichia coli; assay: Antibacterial activity against Escherichia coli ATCC 25922 after 16 hrs; assay type: functional; conditions: ATCC 25922, 16 h
[15] = test system: Acinetobacter baumannii; assay: Antibacterial activity against Acinetobacter baumannii ATCC BAA-747 at 10 ug/ml after 16 hrs; assay type: functional; conditions: ATCC BAA-747, 16 h
[16] = test system: Acinetobacter baumannii; assay: Antibacterial activity against Acinetobacter baumannii ATCC BAA-747 after 16 hrs; assay type: functional; conditions: ATCC BAA-747, 16 h
[17] = test system: Mycolicibacterium smegmatis; assay: Antimycobacterial activity against Mycobacterium smegmatis ATCC 700084 under normoxic condition after 72 hrs by MABA assay; assay type: functional; conditions: ATCC 700084, 72 h
[18] = test system: Mycobacterium tuberculosis; assay: Antimycobacterial activity against Mycobacterium tuberculosis clinical isolate X005319 under normoxic condition after 7 days by MABA assay; assay type: functional; conditions: clinical isolate X005319, 168 h
[19] = test system: Mycobacterium tuberculosis; assay: Antimycobacterial activity against Mycobacterium tuberculosis clinical isolate X005282 under normoxic condition after 7 days by MABA assay; assay type: functional; conditions: clinical isolate X005282, 168 h
[20] = test system: Mycobacterium tuberculosis; assay: Antimycobacterial activity against Mycobacterium tuberculosis clinical isolate X004439 under normoxic condition after 7 days by MABA assay; assay type: functional; conditions: clinical isolate X004439, 168 h
[21] = test system: Mycobacterium tuberculosis; assay: Antimycobacterial activity against Mycobacterium tuberculosis clinical isolate X004244 under normoxic condition after 7 days by MABA assay; assay type: functional; conditions: clinical isolate X004244, 168 h
[22] = test system: Mycobacterium tuberculosis; assay: Antimycobacterial activity against Mycobacterium tuberculosis clinical isolate X003899 under normoxic condition after 7 days by MABA assay; assay type: functional; conditions: clinical isolate X003899, 168 h
[23] = test system: Mycobacterium tuberculosis; assay: Antimycobacterial activity against Mycobacterium tuberculosis clinical isolate X001354 under normoxic condition after 7 days by MABA assay; assay type: functional; conditions: clinical isolate X001354, 168 h
[24] = test system: Vero; assay: Cytotoxicity against african green monkey Vero cells; assay type: cell-based; conditions: Chlorocebus sabaeus
[25] = test system: Mycobacterium tuberculosis; assay: Antimycobacterial activity against Mycobacterium tuberculosis H37Rv under normoxic condition after 7 days by MABA assay; assay type: functional
[26] = test system: Streptomyces lavendofoliae; assay: Antibacterial activity against Streptomyces lavendofoliae after 16 hrs; assay type: functional
[27] = test system: Enterococcus faecalis; assay: Antibacterial activity against Enterococcus faecalis ATCC 29212 at 10 ug/ml after 16 hrs; assay type: functional; conditions: ATCC 29212, 16 h
[28] = Mycobacterium tuberculosis, H37Rv, 168 h

CC(C)C[C@@H]1NC(=O)[C@H]2CCCNN2C(=O)[C@H](C)N(C)C(=O)[C@H]2CCCNN2C(=O)[C@@H]2CCCNN2C(=O)[C@@H](C(C)C)NC1=O
Ratio [1]: 2
Ratio [2]: 2
MIC90 [3]: 29.2 µg/mL
MIC90 [4]: 24.1 µg/mL
MIC90 [5]: 8.4 µg/mL (≈ 13.3 µM)
inhibition at 10 µg/mL [6]: 7%
MIC90 [7]: > 10 µg/mL
MIC90 [8]: 8 µg/mL (≈ 12.6 µM)
inhibition at 10 µg/mL [9]: 17%
MIC90 [10]: > 10 µg/mL
inhibition at 10 µg/mL [11]: 86%
MIC90 [12]: > 10 µg/mL
inhibition at 10 µg/mL [13]: 17%
MIC90 [14]: > 10 µg/mL
inhibition at 10 µg/mL [15]: 37%
MIC90 [16]: > 10 µg/mL
MIC90 [17]: > 10 µg/mL
MIC90 [18]: 19.2 µg/mL (≈ 30.3 µM)
MIC90 [19]: 9.6 µg/mL (≈ 15.1 µM)
MIC90 [20]: 9.3 µg/mL (≈ 14.7 µM)
MIC90 [21]: 16.9 µg/mL (≈ 26.7 µM)
MIC90 [22]: 22.9 µg/mL (≈ 36.1 µM)
MIC90 [23]: 9.7 µg/mL (≈ 15.3 µM)
IC50 [24]: 24.2 µg/mL (≈ 38.2 µM)
MBC90 [25]: >50 µg/mL
MIC90 [25, 28]: 11.3 µg/mL (≈ 17.8 µM)

CC[C@H](C)[C@H]1NC(=O)[C@H](CC(C)C)NC(=O)[C@H]2CCCNN2C(=O)[C@H](C)N(C)C(=O)[C@H]2CCCNN2C(=O)[C@@H]2CCCNN2C1=O
Ratio [1]: 2
Ratio [2]: 2
MIC90 [3]: 9.4 µg/mL
MIC90 [4]: 11.9 µg/mL
MIC90 [5]: 2.4 µg/mL (≈ 3.7 µM)
inhibition at 10 µg/mL [6]: 10%
MIC90 [7]: > 10 µg/mL
MIC90 [8]: 3.5 µg/mL (≈ 5.4 µM)
inhibition at 10 µg/mL [9]: 0%
MIC90 [10]: > 10 µg/mL
MIC90 [12]: 4.5 µg/mL (≈ 6.95 µM)
inhibition at 10 µg/mL [13]: 2%
MIC90 [14]: > 10 µg/mL
inhibition at 10 µg/mL [15]: 77%
MIC90 [16]: > 10 µg/mL
MIC90 [17]: > 10 µg/mL
MIC90 [18]: 4.8 µg/mL (≈ 7.41 µM)
MIC90 [19]: 4.7 µg/mL (≈ 7.26 µM)
MIC90 [20]: 4.4 µg/mL (≈ 6.79 µM)
MIC90 [21]: 4.7 µg/mL (≈ 7.26 µM)
MIC90 [22]: 4.8 µg/mL (≈ 7.41 µM)
MIC90 [23]: 4.7 µg/mL (≈ 7.26 µM)
IC50 [24]: 7.7 µg/mL (≈ 11.9 µM)
MBC90 [25]: 44.2 µg/mL (≈ 68.2 µM)
MIC90 [25, 28]: 6 µg/mL (≈ 9.26 µM)

CC(C)[C@H]1NC(=O)[C@@H]2C[C@@]3(O)c4ccc(Cl)cc4N[C@H]3N2C(=O)[C@H]2CCCNN2C(=O)[C@H](C)N(C)C(=O)[C@H]2CCCNN2C(=O)[C@@H]2CCCNN2C1=O
MIC [25, 28]: 18.6 µg/mL (≈ 24.6 µM)

C=C1NC(CC(C)C)C(=O)N[C@H](C(C)C)C(=O)N2NCCCC2C(=O)CC(CC(C)C)C(=O)N2NCCCC2C(=O)OC(C)[C@H]1NC(=O)[C@@H](NC=O)[C@@H](C)CC (some centres undefined)
MIC [26]: 3.12 µg/mL (≈ 3.95 µM)

NCC[C@H](O)C(=O)N[C@@H]1C[C@H](N)[C@@H](O[C@H]2O[C@H](CN)[C@@H](O)[C@H](O)[C@H]2O)[C@H](O)[C@H]1O[C@H]1O[C@H](CO)[C@@H](O)[C@H](N)[C@H]1O [AMIKACIN]
MIC90 [7]: 1.8 µg/mL (≈ 3.07 µM)

C[C@@H]1[C@H](O)[C@@H](C)/C=C/C=C/C=C/C=C/C=C/C=C/C=C/[C@H](O[C@@H]2O[C@H](C)[C@@H](O)[C@H](N)[C@@H]2O)C[C@@H]2O[C@](O)(C[C@@H](O)C[C@@H](O)[C@H](O)CC[C@@H](O)C[C@@H](O)CC(=O)O[C@H]1C)C[C@H](O)[C@H]2C(=O)O [AMPHOTERICIN B]
MIC90 [10]: 0.4 µg/mL (≈ 0.433 µM)

CC1(C)S[C@@H]2[C@H](NC(=O)[C@H](N)c3ccccc3)C(=O)N2[C@H]1C(=O)O [AMPICILLIN]
inhibition at 10 µg/mL [27]: 66%
MIC90 [8]: > 10 µg/mL
MIC90 [12]: 1.2 µg/mL (≈ 3.43 µM)
MIC90 [14]: 8.9 µg/mL (≈ 25.5 µM)

O=C(O)c1cn(C2CC2)c2cc(N3CCNCC3)c(F)cc2c1=O [CIPROFLOXACIN]
MIC90 [7]: 0.2 µg/mL (≈ 0.604 µM)
MIC90 [8]: 4.9 µg/mL (≈ 14.8 µM)

CC(C)/N=c1\cc2n(-c3ccc(Cl)cc3)c3ccccc3nc-2cc1Nc1ccc(Cl)cc1 [CLOFAZIMINE]
MIC90 [17]: 1.1 µg/mL (≈ 2.32 µM)

CN(C)[C@@H]1C(O)=C(C(N)=O)C(=O)[C@@]2(O)C(O)=C3C(=O)c4c(O)ccc(Cl)c4[C@@H](O)[C@H]3C[C@@H]12 [DEMECLOCYCLINE]
MIC90 [16]: 0.1 µg/mL (≈ 0.215 µM)

C[C@H]1c2cccc(O)c2C(=O)C2=C(O)[C@]3(O)C(=O)C(C(N)=O)=C(O)[C@@H](N(C)C)[C@@H]3[C@@H](O)[C@@H]21.O [DOXYCYCLINE]
MIC90 [16]: 0.1 µg/mL
